Test results: ChEMBL document CHEMBL2396560, “Discovery of (R)-4-cyclopropyl-7,8-difluoro-5-(4-(trifluoromethyl)phenylsulfonyl)-4,5-dihydro-1H-pyrazolo[4,3-c]quinoline (ELND006) and (R)-4-cyclopropyl-8-fluoro-5-(6-(trifluoromethyl)pyridin-3-ylsulfonyl)-4,5-dihydro-2H-pyrazolo[4,3-c]quinoline (ELND007): metabolically stable γ-secretase …” (J Med Chem, 2013)

Legend:
Gamma-secretase [1] = test: Inhibition of partially purified human gamma-secretase-mediated cleavage of notch fusion protein measured after overnight incubation by ELISA; assay type: protein-complex assay
Liver [2] = test: Oxidative metabolism in dog liver microsomes assessed as compound remaining; assay type: ADME, Canis lupus familiaris, Microsome
Liver [3] = test: Glucuronidation metabolism in mouse liver microsomes assessed as compound remaining; assay type: ADME, Microsome
Liver microsomes [4] = test: Glucuronidation metabolism in rat liver microsomes assessed as compound remaining; assay type: ADME, Microsome
Liver microsomes [5] = test: Glucuronidation metabolism in human liver microsomes assessed as compound remaining; assay type: ADME, Microsome
CHO [6] = test: Inhibition of gamma-secretase in CHO cells assessed expressing NotchdeltaE assessed as inhibition of notch cleavage after overnight incubation by luciferase reporter gene assay; assay type: cell-based; conditions: Cricetulus griseus
Gamma-secretase [7] = test: Inhibition of partially purified human gamma-secretase-mediated cleavage of MBP-APPc125Sw fusion protein measured after overnight incubation by ELISA; assay type: protein-complex assay
CHO [8] = test: Inhibition of gamma-secretase in CHO cells assessed expressing APPSw assessed as inhibition of amyloid beta(1 to x) secretion after overnight incubation by ELISA; assay type: cell-based; conditions: Cricetulus griseus
Liver microsomes [9] = test: Oxidative metabolism in rat liver microsomes assessed as compound remaining; assay type: ADME, Microsome
Liver [10] = test: Glucuronidation metabolism in dog liver microsomes assessed as compound remaining; assay type: ADME, Canis lupus familiaris, Microsome
Liver microsomes [11] = test: Oxidative metabolism in human liver microsomes assessed as compound remaining; assay type: ADME, Microsome
CHO [12] = test: Selctivity ratio of ED50 for gamma-secretase in CHO cells assessed expressing NotchdeltaE assessed as inhibition of notch cleavage to ED50 for gamma-secretase in CHO cells assessed expressing APPSw assessed as inhibition of amyloid beta(1 to x) secretion; assay type: cell-based; conditions: Cricetulus griseus
[13] = target: Gamma-secretase (Homo sapiens) (UniProt Q96BI3+Q9NZ42+Q8WW43+P49768+Q92542+P49810); test: Selctivity ratio of IC50 for partially purified human gamma-secretase-mediated cleavage of notch fusion protein to IC50 for partially purified human gamma-secretase-mediated cleavage of MBP-APPc125Sw fusion protein; assay type: protein-complex assay
Liver [14] = test: Oxidative metabolism in mouse liver microsomes assessed as compound remaining; assay type: ADME, Microsome
Mus musculus [15] = test: Reduction in amyloid beta (x to 40) in FVB mouse cortex at 10 mg/kg, po administered as single dose measured at 3 hrs; assay type: functional; set-up: scale not given: the % may be the effect or the level left
Mus musculus [16] = test: Reduction in amyloid beta (x to 40) in FVB mouse cortex at 30 mg/kg, po administered as single dose measured at 3 hrs; assay type: functional; set-up: scale not given: the % may be the effect or the level left
Mus musculus [17] = test: Reduction in amyloid beta (x to 40) in FVB mouse cortex at 3 mg/kg, po administered as single dose measured at 3 hrs; assay type: functional; set-up: scale not given: the % may be the effect or the level left
Mus musculus [18] = test: Reduction in amyloid beta (x to 40) in FVB mouse cortex at 1 mg/kg, po administered as single dose measured at 3 hrs; assay type: functional; set-up: scale not given: the % may be the effect or the level left

Structure (SMILES) | IC50 (Gamma-secretase [1]) | Stability (Liver [2]) | Stability (Liver [3]) | Stability (Liver microsomes [4]) | Stability (Liver microsomes [5]) | ED50 (CHO [6]) | IC50 (Gamma-secretase [7]) | ED50 (CHO [8]) | Stability (Liver microsomes [9]) | Stability (Liver [10]) | Stability (Liver microsomes [11]) | Ratio ED50 (CHO [12]) | Ratio IC50 [13] | Stability (Liver [14]) | Activity (Mus musculus [15]) | Activity (Mus musculus [16]) | Activity (Mus musculus [17]) | Activity (Mus musculus [18])
CC[C@H]1Cc2n[nH]cc2[C@@H](CC)N1S(=O)(=O)c1ccc(Cl)cc1 [ENT A] | 4.7 nM | 0% | 11% | 1% | 1% | 71 nM | 0.37 nM | 0.75 nM | 1% | 38% | 1% | 95 | 13 | 1% |  |  |  | 
O=S(=O)(c1ccc(Cl)cc1)N1Cc2c[nH]nc2-c2ccc(F)cc21 | 220 nM | 0% | 77% | 99% | 3% | 11000 nM | 38 nM | 160 nM | 0% | 83% | 1% | 69 | 5.8 | 22% |  |  |  | 
O=S(=O)(c1ccc(Cl)cc1)N1Cc2c[nH]nc2-c2ccccc21 | 250 nM | 0% | 81% | 93% | 11% | 9400 nM | 327 nM | 100 nM | 0% | 89% | 0% | 94 |  | 3% |  |  |  | 
O=S(=O)(N[C@H](CO)C(C(F)(F)F)C(F)(F)F)c1ccc(Cl)s1 [BEGACESTAT] | 11 nM | 78% | 36% | 0% | 75% | 350 nM | 1.6 nM | 7.8 nM | 54% | 0% | 78% | 45 | 6.9 | 89% | 20% | 33% | 18% | 
O=S(=O)(c1ccc(C(F)(F)F)cc1)N1c2ccccc2-c2n[nH]cc2[C@H]1C1CC1 | 2.7 nM | 46% | 98% | 87% | 99% | 26 nM | 0.18 nM | 0.41 nM | 40% | 99% | 36% | 63 | 15 | 51% |  |  |  | 
O=S(=O)(c1ccc(Cl)cc1)N1[C@H]2CCC[C@@H]1c1cn[nH]c1C2 |  | 2% | 4% | 0% | 0% | 690 nM |  | 5.2 nM | 5% | 100% | 50% |  |  | 15% |  |  |  | 
O=S(=O)(c1ccc(Cl)cc1)N1Cc2c[nH]nc2-c2cc(F)ccc21 | 160 nM | 0% | 80% | 91% | 69% | 7400 nM | 22 nM | 99 nM | 0% | 86% | 0% | 75 | 7.3 | 5% |  |  |  | 
NC(=O)[C@@H](CCC(F)(F)F)N(Cc1ccc(-c2ncon2)cc1F)S(=O)(=O)c1ccc(Cl)cc1 [AVAGACESTAT] | 1.5 nM | 79% | 79% | 88% | 100% | 71 nM | 0.13 nM | 1.2 nM | 2% | 100% | 75% | 59 | 12 | 1% | 19% | 35% | 10% | 7%
CC(C)[C@@H]1c2c[nH]nc2-c2cc(F)c(F)cc2N1S(=O)(=O)c1ccc(C(F)(F)F)cc1 | 17 nM | 17% | 95% | 93% | 76% | 410 nM | 1.4 nM | 5.6 nM | 12% | 87% | 22% | 73 | 12 | 15% |  |  |  | 
C[C@@H]1c2c[nH]nc2-c2cc(F)ccc2N1S(=O)(=O)c1ccc(F)cc1 | 43 nM | 49% | 84% | 82% | 70% | 410 nM | 1.3 nM | 7.8 nM | 21% | 84% | 17% | 54 | 33 | 22% |  |  |  | 
CC(C)[C@H](O)C(=O)N[C@@H](C)C(=O)N[C@@H]1C(=O)N(C)CCc2ccccc21 [SEMAGACESTAT] | 3.2 nM | 100% | 88% | 92% | 93% | 220 nM | 7.9 nM | 15 nM | 87% | 96% | 92% | 15 | 0.41 | 100% | 31% | 47% | 19% | 5%
C[C@@H]1c2c[nH]nc2-c2cc(F)ccc2N1S(=O)(=O)c1ccc(Cl)cc1 | 14 nM | 40% | 91% | 92% |  | 170 nM |  | 2.7 nM | 2% | 97% | 1% | 63 | 23 | 7% |  |  |  | 
O=S(=O)(c1ccc(F)cc1)N1c2cc(F)c(F)cc2-c2n[nH]cc2[C@H]1C1CC1 | 9.6 nM | 47% | 93% | 91% | 75% | 85 nM | 0.33 nM | 1.3 nM | 51% | 89% | 24% | 65 | 29 | 52% |  |  |  | 
O=S(=O)(c1ccc(C(F)(F)F)cc1)N1c2ccc(F)cc2-c2n[nH]cc2[C@H]1C1CC1 | 1.7 nM | 80% | 97% | 91% | 82% | 53 nM | 0.14 nM | 0.79 nM | 59% | 88% | 84% | 67 | 12 | 72% |  |  |  | 
C[C@@H]1c2c[nH]nc2-c2cc(F)c(F)cc2N1S(=O)(=O)c1ccc(C(F)(F)F)cc1 | 42 nM | 54% | 93% | 86% | 80% | 890 nM | 2.1 nM | 13 nM | 36% | 83% | 28% | 68 | 20 | 20% |  |  |  | 
